Laboratory results reported in ChEMBL document CHEMBL3046212, “Synthesis and immunostimulating activity of C-pseudonucleosides containing N-phenyl thiazolidin-4-one” (2013).

Tests used:
Assay type in all cases: functional, Splenocyte
[1] = Immunostimulatory activity in Balb/c mouse splenocytes assessed as increase in conA-induced T cell proliferation at 100 uM after 72 hrs by MTT assay relative to control
[2] = Immunostimulatory activity in Balb/c mouse splenocytes assessed as increase in conA-induced T cell proliferation at 10 uM after 72 hrs by MTT assay relative to control
[3] = Immunostimulatory activity in Balb/c mouse splenocytes assessed as increase in conA-induced T cell proliferation at 5 uM after 72 hrs by MTT assay relative to control
[4] = Immunostimulatory activity in Balb/c mouse splenocytes assessed as increase in conA-induced T cell proliferation at 50 uM after 72 hrs by MTT assay relative to control
[5] = Immunostimulatory activity in Balb/c mouse splenocytes assessed as increase in conA-induced T cell proliferation at 25 uM after 72 hrs by MTT assay relative to control

Row | SMILES | Activity [1] [%] | Activity [2] [%] | Activity [3] [%] | Activity [4] [%] | Activity [5] [%]
1 | O=C1CS[C@H]([C@H]2O[C@H](CO)[C@@H](O)[C@@H]2O)N1c1ccc(Cl)cc1 | 107.1 | 91.5 | 101.6 | 30.9 | 87.6
2 | O=C1CS[C@@H]([C@H]2O[C@H](CO)[C@@H](O)[C@@H]2O)N1c1cccc(Cl)c1 | 126 | 138.2 | 139.7 | 121.5 | 130.3
3 | CCOC(=O)c1ccc(N2C(=O)CS[C@H]2[C@H]2O[C@H](CO)[C@@H](O)[C@@H]2O)cc1 | 142.9 | 136.5 | 153.2 | 136.5 | 161.9
4 | COc1ccc(N2C(=O)CS[C@H]2[C@H]2O[C@H](CO)[C@@H](O)[C@@H]2O)cc1 | 99.2 | 106.8 |  | 103.2 | 106.8
5 | CCOC(=O)c1ccc(N2C(=O)CS[C@@H]2[C@H]2O[C@H](CO)[C@@H](O)[C@@H]2O)cc1 | 180.2 | 177 | 132.5 | 206.3 | 126.2
6 | O=C1CS[C@H]([C@H]2O[C@H](CO)[C@@H](O)[C@@H]2O)N1c1cccc(Cl)c1 | 144.4 | 155.6 | 162.2 | 161.1 | 158.7
7 | Cc1cccc(N2C(=O)CS[C@H]2[C@H]2O[C@H](CO)[C@@H](O)[C@@H]2O)c1 | 169.8 | 142.1 | 149.2 | 158.7 | 152.4
8 | COc1cccc(N2C(=O)CS[C@H]2[C@H]2O[C@H](CO)[C@@H](O)[C@@H]2O)c1 | 162.7 | 134.1 | 146 | 147.6 | 156.3
9 | Cc1ccc(N2C(=O)CS[C@H]2[C@H]2O[C@H](CO)[C@@H](O)[C@@H]2O)cc1 | 95.2 | 83.7 | 84.9 | 96.3 | 86.1
10 | COc1ccc(N2C(=O)CS[C@@H]2[C@H]2O[C@H](CO)[C@@H](O)[C@@H]2O)cc1 | 99.6 | 105.2 | 108.8 | 93.6 | 97.2
11 | Cc1ccc(N2C(=O)CS[C@@H]2[C@H]2O[C@H](CO)[C@@H](O)[C@@H]2O)cc1 | 105.6 | 110 | 91.2 | 104 | 95.6
12 | O=C1CS[C@@H]([C@H]2O[C@H](CO)[C@@H](O)[C@@H]2O)N1c1ccc(Cl)cc1 | 112.4 | 101.2 | 100 | 112.3 | 102.2
13 | Cc1cccc(N2C(=O)CS[C@@H]2[C@H]2O[C@H](CO)[C@@H](O)[C@@H]2O)c1 | 160.3 | 155.6 | 163.5 | 134.9 | 157.9
14 | COc1cccc(N2C(=O)CS[C@@H]2[C@H]2O[C@H](CO)[C@@H](O)[C@@H]2O)c1 | 125.4 | 165.1 | 17.6 | 158.7 | 129.3
